Experimental data: PubChem BioAssay AID334 (DTP/NCI, 2004)
Values joined by “and” are separate entries in the source; they are usually repeats but may differ in a detail not shown here. Equal values may be shown once. Toxic doses and inconclusive results are not listed. How the source made its calls: active means survival T/C of 150% or more; inactive means T/C below 125% in these data.

Tested on: CD2F1 mice, intracerebral P388 leukemia, median survival T/C%
Assay: NCI In Vivo Anticancer Drug Screen. Data for tumor model P388 Leukemia (intracerebral) in CD2F1 (CDF1) mice
Conditions: endpoint: median survival time, higher = longer survival
Description: The antitumor activity of compounds was measured in mice bearing transplantable tumors. Survival or tumor size were measured and the results are expressed as the measurement made in the treated group (T) divided by the measurement made in the vehicle treated control group (C). The tumor model used in this assay is P388 Leukemia (intracerebral) in CD2F1 (CDF1) mice

[1] = dose: 32.0 mg/kg/injection, schedule: Q01DX005 (ip), vehicle: saline

Measured: T/C

F
inactive: dose: 16.0 mg/kg/injection, schedule: Q01DX005 (ip), vehicle: saline 97 % of control and 101 % of control | [1] 98 % of control and 99 % of control

CCCCCCCCCCCCCCCCCC(=O)NC(CC(=O)OCCCCCC)c1ccc(N(CCCl)CCCl)cc1 (stereo not given)
active: dose: 69.0 mg/kg/injection, schedule: Q03HX008 (ip), vehicle: saline 152 % of control
inactive: dose: 2.15 mg/kg/injection, schedule: Q03HX008 (ip), vehicle: saline 105 % of control | dose: 4.3 mg/kg/injection, schedule: Q03HX008 (ip), vehicle: saline 105 % of control | dose: 8.6 mg/kg/injection, schedule: Q03HX008 (ip), vehicle: saline 105 % of control | dose: 275.0 mg/kg/injection, schedule: Q03HX008 (ip), vehicle: saline 121 % of control

O=[N+]([O-])O.[Ga]
inactive: [1] 111 % of control | dose: 64.0 mg/kg/injection, schedule: Q01DX005 (ip), vehicle: saline 111 % of control | dose: 128.0 mg/kg/injection, schedule: Q01DX005 (ip), vehicle: saline 104 % of control

CC1(C)N=C(N)N=C(N)N1c1ccc(CNC(=O)Nc2cccc(S(=O)(=O)F)c2)cc1
inactive: dose: 150.0 mg/kg/injection, schedule: Q04DX003 (ip), vehicle: saline 122 % of control | dose: 225.0 mg/kg/injection, schedule: Q04DX003 (ip), vehicle: saline 116 % of control

COc1cccc2c1C(=O)c1c(O)c3c(c(O)c1C2=O)C[C@@](O)(C(=O)CO)C[C@@H]3OC1CC(N)C(O)C(C)O1 (stereo not given in full)
inactive: dose: 0.5 mg/kg/injection, schedule: Q01DX001 (ip), vehicle: saline 89 % of control | dose: 1.0 mg/kg/injection, schedule: Q01DX001 (ip), vehicle: saline 98 % of control | dose: 2.0 mg/kg/injection, schedule: Q01DX001 (ip), vehicle: saline 94 % of control | dose: 4.0 mg/kg/injection, schedule: Q01DX001 (ip), vehicle: saline 90 % of control | dose: 8.0 mg/kg/injection, schedule: Q01DX001 (ip), vehicle: saline 80 % of control | dose: 16.0 mg/kg/injection, schedule: Q01DX001 (ip), vehicle: saline 91 % of control

CNc1nc(N(C)C)nc(N(C)C)n1
inactive: dose: 8.0 mg/kg/injection, schedule: Q01DX009 (ip), vehicle: saline 99 % of control | dose: 12.5 mg/kg/injection, schedule: Q01DX009 (ip), vehicle: saline 101 % of control and 111 % of control | dose: 16.0 mg/kg/injection, schedule: Q01DX009 (ip), vehicle: saline 103 % of control | dose: 32.0 mg/kg/injection, schedule: Q01DX009 (ip), vehicle: saline 106 % of control | dose: 64.0 mg/kg/injection, schedule: Q01DX009 (ip), vehicle: saline 118 % of control

N[C@@H](Cc1ccc(N(CCCl)CCCl)cc1)C(=O)O
inactive: dose: 0.25 mg/kg/injection, schedule: Q03HX008 (ip), vehicle: saline 105 % of control | dose: 0.5 mg/kg/injection, schedule: Q03HX008 (ip), vehicle: saline 115 % of control

CC(=O)O[C@]1(C(C)=O)CC[C@H]2[C@@H]3C[C@H](C)C4=CC(=O)CC[C@]4(C)[C@H]3CC[C@@]21C
inactive: dose: 8.0 mg/kg/injection, schedule: Q01DX009 (ip), vehicle: Klucel (hydroxypropylcellulose) (HPC) 92 % of control and 104 % of control | dose: 16.0 mg/kg/injection, schedule: Q01DX009 (ip), vehicle: Klucel (hydroxypropylcellulose) (HPC) 100 % of control and 102 % of control | dose: 32.0 mg/kg/injection, schedule: Q01DX009 (ip), vehicle: Klucel (hydroxypropylcellulose) (HPC) 93 % of control and 103 % of control | dose: 64.0 mg/kg/injection, schedule: Q01DX009 (ip), vehicle: Klucel (hydroxypropylcellulose) (HPC) 90 % of control and 99 % of control | dose: 128.0 mg/kg/injection, schedule: Q01DX009 (ip), vehicle: Klucel (hydroxypropylcellulose) (HPC) 90 % of control and 101 % of control | dose: 256.0 mg/kg/injection, schedule: Q01DX009 (ip), vehicle: Klucel (hydroxypropylcellulose) (HPC) 96 % of control and 103 % of control

N=C(N)SCc1c2ccccc2c(CSC(=N)N)c2ccccc12
inactive: dose: 2.5 mg/kg/injection, schedule: Q01DX005 (ip), vehicle: Klucel (hydroxypropylcellulose) (HPC) 93 % of control and 96 % of control | dose: 5.0 mg/kg/injection, schedule: Q01DX005 (ip), vehicle: Klucel (hydroxypropylcellulose) (HPC) 97 % of control and 104 % of control | dose: 10.0 mg/kg/injection, schedule: Q01DX005 (ip), vehicle: Klucel (hydroxypropylcellulose) (HPC) 97 % of control and 101 % of control | dose: 20.0 mg/kg/injection, schedule: Q01DX005 (ip), vehicle: Klucel (hydroxypropylcellulose) (HPC) 96 % of control and 104 % of control
